pIC50: −log10 of the molar value. Where two headings read alike, the source gives them in different places.
Key:
SKBR3 cells = assay: Anti-tumor cell proliferation activity of compound of formula (D-H), Cell-Titer Glo, SKBR3; assay type: cell-based, human; settings: for IC50: read-out: SKBR3 Antiproliferative activity IC50 (nM), SKBR3 cells, 5 days; for pIC50: SKBR3 cells, 5 days, read-out: SKBR3 Antiproliferative activity IC50
Description: (§1) Cell culture: HCT116 cells and SKBR3 cells were cultured with a McCoy's 5a medium containing 10% fetal bovine serum+1% penicillin-streptomycin at 37° C. with 5% CO2, and OVCAR3 cells were cultured with a 1640 medium containing 20% fetal bovine serum+2 μg/mL bovine insulin+1% penicillin-streptomycin at 37° C. with 5% CO2. Cells at logarithmic growth phase were available for the experiment.
(§2) Cell proliferation activity test: The Cell-Titer Glo reagent was used to test the compound for inhibitory activity on proliferation of the three cell strains HCT116, SKBR3, and OVCAR3. HCT116 cells (1500 per well), SKBR3 cells (3000 per well), and OVCAR3 cells (5000 per well) were seeded on 96-well plates and incubated at 37° C. with 5% CO2 for 24 h. After a solution of the compound to be detected was added (the compound was dissolved in DMSO so that the compound concentration was 1 mM, then the compound was diluted to […] in DMSO at 9 concentrations in a 3-fold dilution, and 10 μL of the prepared compound solution was transferred to the 96-well plate so that the final concentration was 0-300 nM), the mixture was incubated at 37° C. with 5% CO2. HCT116 cells were cultured for 3 days, and SKBR3 cells and OVCAR3 cells were cultured for 5 days. The Cell-Titer Glo reagent was added and the cell activity was measured.
(§3) A negative control group and a positive control group were respectively used as Bottom and Top. The negative control group was not added with cells, only added with the culture medium in the same volume, and other operations were consistent with those of the experimental group. The positive control group was not added with the test drug, and other operations were consistent with those of the experimental group.
(§4) Data analysis: % Inhibition was calculated, and compound IC50 was fitted.
(§5) % Inhibition=1-100%×(Signal−Bottom)/(Top−Bottom).
(§6) Signal referred to the signal value of the experimental group, Bottom referred to the average signal value of the negative control group, and Top referred to the average signal value of the positive control group.

OVCAR3 cells = assay: Anti-tumor cell proliferation activity of compound of formula (D-H), Cell-Titer Glo, OVCAR3; assay type: cell-based; settings: Homo sapiens, OVCAR-3, 120 h; for IC50: read-out: OVCAR3 Antiproliferative activity IC50 (nM); for pIC50: OVCAR3 cells, 5 days, read-out: OVCAR3 Antiproliferative activity IC50
Description: as §1, §2, §3, §4, §5, §6

HCT116 cells = assay: Anti-tumor cell proliferation activity of compound of formula (D-H), Cell-Titer Glo, HCT116; assay type: cell-based; settings: Homo sapiens, HCT-116, 72 h; for IC50: read-out: HCT116 Antiproliferative activity IC50 (nM), HCT116 cells, 3 days; for pIC50: HCT116 cells, 3 days, read-out: HCT116 Antiproliferative activity IC50
Description: as §1, §2, §3, §4, §5, §6

Structure (SMILES)	IC50 (SKBR3 cells; Homo sapiens, SK-BR-3, 120 h)	IC50 (OVCAR3 cells)	IC50 (HCT116 cells)	also measured
CC[C@@]1(O)C(=O)OCc2c1cc1n(c2=O)Cc2c-1nc1cc(Cl)c(C)cc1c2CNC(=O)CO [Compound 6, (S)-N-((8-chloro-4-ethyl-4-hydroxy-9-methyl-3,14-dioxo-3,4,12,14-tetrahydro-1H-pyrano[3′,4′:6,7]indolizino[1,2-b]quinolin-11-yl)methyl)-2-hydroxyacetamide]	4.8 nM	2.1 nM		
CC[C@@]1(O)C(=O)OCc2c1cc1n(c2=O)Cc2c-1nc1cc(F)c(C)cc1c2CNC(=O)C1(O)CC1 [Compound 9, (S)-N-((4-ethyl-8-fluoro-4-hydroxy-9-methyl-3,14-dioxo-3,4,12,14-tetrahydro-1H-pyrano[3′,4′:6,7]indolizino[1,2-b]quinolin-11-yl)methyl)-1-hydroxycyclopropane-1-carboxamide]	2.1 nM		< 10 nM	
CC[C@@]1(O)C(=O)OCc2c1cc1n(c2=O)Cc2c-1nc1cc(Cl)c(C)cc1c2CNC(=O)C1(O)CC1 [Compound 10, (S)-N-((8-chloro-4-ethyl-4-hydroxy-9-methyl-3,14-dioxo-3,4,12,14-tetrahydro-1H-pyrano[3′,4′:6,7]indolizino[1,2-b]quinolin-11-yl)methyl)-1-hydroxycyclopropane-1-carboxamide]	2.3 nM		< 10 nM	
CC[C@@]1(O)C(=O)OCc2c1cc1n(c2=O)Cc2c-1nc1cc(Cl)c(C)cc1c2CNC(=O)C(O)C1CC1 (stereo partly drawn) [Compound 11, N—(((S)-8-chloro-4-ethyl-4-hydroxy-9-methyl-3,14-dioxo-3,4,12,14-tetrahydro-1H-pyrano[3′,4′:6,7]indolizino[1,2-b]quinolin-11-yl)methyl)-2-cyclopropyl-2-hydroxyacetamide]	3.2 nM			
CC[C@@]1(O)C(=O)OCc2c1cc1n(c2=O)Cc2c-1nc1ccc3c(c1c2CNC(=O)C(O)C1CC1)CCC3 (stereo partly drawn) [Compound 13, 2-cyclopropyl-N—(((S)-8-ethyl-8-hydroxy-9,12-dioxo-2,3,8,9,12,14-hexahydro-1H,11H-cyclopenta[f]pyrano[3′,4′:6,7]indolizino[1,2-b]quinolin-15-yl)methyl)-2-hydroxyacetamide]		0.7 nM	< 10 nM	
CC[C@@]1(O)C(=O)OCc2c1cc1n(c2=O)Cc2c-1nc1cc3c(cc1c2CNC(=O)C(O)C1CC1)OCO3 (stereo partly drawn) [Compound 14, 2-cyclopropyl-N—(((S)-7-ethyl-7-hydroxy-8,11-dioxo-7,8,11,13-tetrahydro-10H-[1,3]dioxolo[4,5-g]pyrano[3′,4′:6,7]indolizino[1,2-b]quinolin-14-yl)methyl)-2-hydroxyacetamide]	2.2 nM	0.9 nM	< 10 nM	
CC[C@@]1(O)C(=O)OCc2c1cc1n(c2=O)Cc2c-1nc1cc3c(cc1c2CNC(=O)[C@@H](O)C1CC1)OCO3 [Compound 14-P1, (S)-2-cyclopropyl-N—(((S)-7-ethyl-7-hydroxy-8,11-dioxo-7,8,11,13-tetrahydro-10H-[1,3]dioxolo[4,5-g]pyrano[3′,4′:6,7]indolizino[1,2-b]quinolin-14-yl)methyl)-2-hydroxyacetamide]		0.6 nM	< 10 nM	pIC50 (SKBR3 cells; Homo sapiens, SK-BR-3, 120 h): 8.68
CC[C@@]1(O)C(=O)OCc2c1cc1n(c2=O)Cc2c-1nc1cc3c(cc1c2CNC(=O)C(O)C1CC1)OCO3 (stereo partly drawn) [Compound 14-P2, 2-cyclopropyl-N—(((S)-7-ethyl-7-hydroxy-8,11-dioxo-7,8,11,13-tetrahydro-10H-[1,3]dioxolo[4,5-g]pyrano[3′,4′:6,7]indolizino[1,2-b]quinolin-14-yl)methyl)-2-hydroxyacetamide]				pIC50 (SKBR3 cells): 8.46; pIC50 (OVCAR3 cells): 9.00; pIC50 (HCT116 cells): 7.00 to 8.00
CC[C@@]1(O)C(=O)OCc2c1cc1n(c2=O)Cc2c-1nc1cc(F)c(Cl)c(F)c1c2CNC(=O)C1(O)CC1 [Compound 16, (S)-N-((9-chloro-4-ethyl-8,10-difluoro-4-hydroxy-3,14-dioxo-3,4,12,14-tetrahydro-1H-pyrano[3′,4′:6,7]indolizino[1,2-b]quinolin-11-yl)methyl)-1-hydroxycyclopropane-1-carboxamide]	2.3 nM		< 10 nM	
CC[C@@]1(O)C(=O)OCc2c1cc1n(c2=O)Cc2c-1nc1cc(Cl)c(C)cc1c2CNC(=O)C(C)(C)O [Compound 17, (S)-N-((8-chloro-4-ethyl-4-hydroxy-9-methyl-3,14-dioxo-3,4,12,14-tetrahydro-1H-pyrano[3′,4′:6,7]indolizino[1,2-b]quinolin-11-yl)methyl)-2-hydroxy-2-methylpropanamide]	2.7 nM		< 10 nM	
CC[C@@]1(O)C(=O)OCc2c1cc1n(c2=O)Cc2c-1nc1cc(Cl)c(C)cc1c2CNC(=O)C(O)C(C)C (stereo partly drawn) [Compound 18, N—(((S)-8-chloro-4-ethyl-4-hydroxy-9-methyl-3,14-dioxo-3,4,12,14-tetrahydro-1H-pyrano[3′,4′:6,7]indolizino[1,2-b]quinolin-11-yl)methyl)-2-hydroxy-3-methylbutanamide]	5.1 nM		10 to 100 nM	
[2H]C1([2H])Oc2cc3nc4c(c(CNC(=O)[C@@H](O)C5CC5)c3cc2O1)Cn1c-4cc2c(c1=O)COC(=O)[C@]2(O)CC [Compound 19-P1, (S)-2-cyclopropyl-N—(((S)-7-ethyl-7-hydroxy-8,11-dioxo-7,8,11,13-tetrahydro-10H-[1,3]dioxolo[14,5-g]pyrano[3′,4′:6,7]indolizino[1,2-b]quinolin-14-yl-2,2-d2)methyl)-2-hydroxyacetamide]		0.6 nM	< 10 nM	
[2H]C1([2H])Oc2cc3nc4c(c(CNC(=O)[C@@H](O)C5CC5)c3cc2O1)Cn1c-4cc2c(c1=O)COC(=O)[C@]2(O)CC [Compound 19-P2, 2-cyclopropyl-N—(((S)-7-ethyl-7-hydroxy-8,11-dioxo-7,8,11,13-tetrahydro-10H-[1,3]dioxolo[4,5-g]pyrano[3′,4′:6,7]indolizino[1,2-b]quinolin-14-yl-2,2-d2)methyl)-2-hydroxyacetamide]				pIC50 (OVCAR3 cells): 9.00; pIC50 (HCT116 cells): > 8.00
CC[C@@]1(O)C(=O)OCc2c1cc1n(c2=O)Cc2c-1nc1ccc3occc3c1c2CNC(=O)CO [Compound 20, (S)-N-((8-ethyl-8-hydroxy-9,12-dioxo-8,9,12,14-tetrahydro-11H-furo[3,2-f]pyrano [3′,4′:6,7]indolizino[1,2-b]quinolin-15-yl)methyl)-2-hydroxyacetamide]	10.5 nM		10 to 100 nM	
CC[C@@]1(O)C(=O)OCc2c1cc1n(c2=O)Cc2c-1nc1cc3c(c(Cl)c1c2CNC(=O)C(O)C1CC1)OCO3 (stereo partly drawn) [Compound 30, N—(((S)-15-chloro-7-ethyl-7-hydroxy-8,11-dioxo-7,8,11,13-tetrahydro-10H-[1,3]dioxolo[4,5-g]pyrano[3′,4′:6,7]indolizino[1,2-b]quinolin-14-yl)methyl)-2-cyclopropyl-2-hydroxyacetamide]		0.4 nM	< 10 nM	
CC[C@@]1(O)C(=O)OCc2c1cc1n(c2=O)Cc2c-1nc1cc3c(c(Cl)c1c2CNC(=O)CO)OCO3 [Compound 31, (S)-N-((15-chloro-7-ethyl-7-hydroxy-8,11-dioxo-7,8,11,13-tetrahydro-10H-[1,3]dioxolo[4,5-g]pyrano[3′,4′:6,7]indolizino[1,2-b]quinolin-14-yl)methyl)-2-hydroxyacetamide]		0.2 nM	< 10 nM	
CC[C@@]1(O)C(=O)OCc2c1cc1n(c2=O)Cc2c-1nc1cc(Cl)c3c(c1c2CNC(=O)CO)CCC3 [Compound 33, (S)-N-((4-chloro-8-ethyl-8-hydroxy-9,12-dioxo-2,3,8,9,12,14-hexahydro-1H,11H-cyclopenta[f]pyrano[3′,4′:6,7]indolizino[1,2-b]quinolin-15-yl)methyl)-2-hydroxyacetamide]		0.8 nM	< 10 nM	
CC[C@@]1(O)C(=O)OCc2c1cc1n(c2=O)Cc2c-1nc1cc(Cl)c3c(c1c2CNC(=O)C(O)C1CC1)CCC3 (stereo partly drawn) [Compound 34, N—(((S)-4-chloro-8-ethyl-8-hydroxy-9,12-dioxo-2,3,8,9,12,14-hexahydro-1H,11H-cyclopenta[f]pyrano[3′,4′:6,7]indolizino[1,2-b]quinolin-15-yl)methyl)-2-cyclopropyl-2-hydroxyacetamide]		0.6 nM	< 10 nM	

— patent US20250304717A1, “CAMPTOTHECIN DERIVATIVE AND LIGAND-DRUG CONJUGATE” (HAINAN SIMCERE ZAIMING PHARMACEUTICAL CO., LTD., priority 2022, published 2025)
